Assay results: patent publication US20070197452A1, “Treatment of amyloid-related diseases” (priority 2006, published 2007)

Assays:
TgCRND8 mice [1] = test: Morris water maze spatial reference memory test; type: in vivo, mouse; conditions: prophylactic, 6 weeks to 6 months of age
Protocol: Behavioural tests: Morris Water Maze testing was performed as previously described. After non-spatial pre-training, mice underwent place discrimination training for 5 days with 4-trials per day, followed by a cued visible platform to rule out general motivational, learning deficits and motor problems, and a probe trial to evaluate memory. […] Open field test for motor activity was preformed as described previously. Duration of walking, pausing and grooming were analyzed as indices of spontaneous locomotor activity. Sensorimotor function was examined with an EconomexTM accelerating rotarod (Columbus Instruments, Columbus, Ohio), as described elsewhere. The rod was set to accelerate at a rate of 0.2 r.p.m./s, from an initial, constant speed of 5 r.p.m. Latency to fall was recorded in four daily trials, conducted at 30 min intervals. All mice were trained for seven days before testing. The test day performance score for each animal was obtained by summing its latency to fall over the four trials Behavioral tests. Morris water maze testing was carried out as previously described. After nonspatial pretraining, mice underwent place discrimination training for 5 d with four trials per day, followed by a cued visible platform trial and a probe trial. An open-field test for motor activity was carried out as described previously. Sensorimotor function was assessed with an Economex accelerating rotarod (Columbus Instruments) as previously described. Behavioural tests. Morris Water Maze testing was performed as previously described. After non-spatial pre-training, mice underwent place discrimination training for 5 days with 4-trials per day, followed by a cued visible platform to rule out general motivational, learning deficits and motor problems, and a probe trial to evaluate memory. The probe trial was conducted at 72 h after the last testing, and used an annulus-crossing index to assess spatial recall. The annulus-crossing index measures the number of passes over the original platform position relative to passes over the other three quadrants. […] Open field test for motor activity was performed as described previously

TgCRND8 mice [2] = test: Cerebral amyloid plaque burden (anti-Aβ immunostaining, image analysis); type: in vivo, mouse; conditions: TgCRND8 mice at six months of age; vs untreated
Protocol: Cerebral amyloid burden. […] To generate sets of systematic uniform random sections, 5 μm serial sections were collected across the entire hemisphere. Sets of sections at 50 μm intervals were used for analyses (10-14 sections/set). Plaques were identified after antigen retrieval with formic acid, and incubation with primary anti-Aβ antibody (Dako M-0872), followed by secondary antibody (Dako StreptABCcomplex/horseradish kit). End products were visualized with DAB and were counter-stained with luxol fast blue. Amyloid plaque burden was assessed with Leco IA-3001 image analysis software interfaced with Leica microscope and Hitachi KP-M1U CCD video camera. Openlab imaging software (Improvision, Lexington, Mass.) was then used to convert micrographs to binary images for plaque number and plaque area determinations. Vascular amyloid burden was defined as amyloid originating from or surrounding blood vessels and was analysed similarly. Cerebral Aβ burden. […] Sets of sections at […] intervals for analyses (10-14 sections per set) were used. Plaques with primary Aβ-specific antibody (Dako M-0872) were identified and visualized with DAB. AP plaque burden was assessed with Openlab imaging software (Improvision) and used to convert micrographs to binary images for determinations of plaque number and plaque area. Vascular Aβ burden was defined as Aβ plaques originating from or surrounding blood vessels and was analyzed similarly. Cerebral Aβ burden. […] To generate sets of systematic uniform random sections, 5 μm serial sections were collected across the entire hemisphere. Sets of sections at 50 μm intervals were used for analyses (10-14 sections/set). Plaques were identified after antigen retrieval with formic acid, and incubation with primary anti-Aβ antibody (Dako M-0872), followed by secondary antibody (Dako StreptABCcomplex/horseradish kit). End products were visualized with DAB and were counter-stained with luxol fast blue. Aβ plaque burden was assessed with Leco IA-3001 image analysis software interfaced with Leica microscope and Hitachi KP-M1U CCD video camera. Openlab imaging software (Improvision, Lexington, Mass.) was then used to convert micrographs to binary images for plaque number and plaque area determinations. Vascular Aβ burden was defined as Aβ plaques originating from or surrounding blood vessels and was analyzed similarly.

TgCRND8 mice [3] = test: Survival census (Kaplan-Meier); type: in vivo, mouse; conditions: prophylactic treatment, vs untreated, n=35 per group
Protocol: Survival Census: The probability of survival was assessed by the Kaplan-Meier technique, computing the probability of survival at every occurrence of death, thus making it suitable for small sample sizes. For the analyses of survival, 35 mice were used for each treatment group. The Tarone-Ware test was used to assess effects of treatments.
Survival census. The probability of survival was assessed using the Kaplan-Meier technique, computing the probability of survival at every occurrence of death, thus making it suitable for small sample sizes. For the analyses of survival, 35 mice were used for each treatment group. The Tarone-Ware test was used to assess effects of treatments.

[4] = 6-18 grams/day/adult or 86-257 mg/Kg/day; cited from earlier work
Aβ = Aβ (Homo sapiens, UniProt P05067); conditions: reference [11]; cited from earlier work
Pilot in vivo studies = conditions: data not shown
[5] = tested on: mouse model of Huntington disease; conditions: oral administration; reference [26]; cited from earlier work

Chain of Aβ (P05067 672-713 limits assumed): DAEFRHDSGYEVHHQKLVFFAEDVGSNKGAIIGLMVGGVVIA

SMILES: OC[C@@H](O)[C@@H](O)[C@H](O)[C@H](O)CO [mannitol, reference compound]
- cognitive performance compared with non-Tg littermates (TgCRND8 mice [1]): significantly different from mannitol treated non-Tg littermates
- cognitive performance compared with untreated TgCRND8 mice (TgCRND8 mice [1]): no effect on behavior
- cognitive performance compared with untreated TgCRND8 mice (TgCRND8 mice [1]; listed as Mannitol): not significantly different from untreated TgCRND8 mice
- plaque count as measure of total plaque burden (TgCRND8 mice [2]): indistinguishable from untreated TgCRND8 mice
- survival (Kaplan-Meier cumulative survival) (TgCRND8 mice [3]): not significantly different

SMILES: O[C@H]1[C@H](O)[C@@H](O)[C@H](O)[C@@H](O)[C@H]1O [myo-cyclohexanehexol, 1,2,3,5/4,6-(myo-) cyclohexanehexol]
- toxicity [4]: no toxicity
- effectiveness in prior in vitro studies (Aβ): only weakly effective
- benefit in pilot in vivo studies (Pilot in vivo studies): no significant benefit

SMILES: OC[C@H]1O[C@H](O[C@H]2O[C@H](CO)[C@@H](O)[C@H](O)[C@H]2O)[C@H](O)[C@@H](O)[C@@H]1O [trehalose]
- effects in mouse model of Huntington disease [5]: decreased polyglutamine aggregates in brain, improved motor dysfunction and extended lifespan
